Measured values from a melting point compilation (Tetko et al.; mined from patent text by program, amines drawn as free bases though some values may be those of a salt).

Compound	melting point [°C]
Nc1cc2c(cc1N)OCOC2	156 to 158
O=C(O)c1ccc(CN2C(=O)C3CCCC3=Nc3ccc(Cl)cc32)cc1 (stereo not given)	251 to 255
CN(CCOc1ccc(C=C2SC(=O)NC2=O)cc1)c1ccccn1	177 to 179
CCOC(=O)c1c(-c2ccccc2)c(Cc2cccc(F)c2C)cn1N	87 to 88
CN1Cc2c(C(N)=NO)ncn2-c2cccc(Cl)c2C1=O	> 250
CCOc1nc2c(nc1C(=O)Cl)c(C)nn2CC	109 to 111
CC1(C)Oc2ccsc2C(N2CCCC2=O)C1O (stereo not given)	154 to 155
Cc1nccn1-c1nc(-c2ccc(Cl)c(Cl)c2)c(CCCO)o1	140 to 141
NC(=O)CCCCc1c[nH]c2ccccc12	134 to 139
O=C(Nc1ccc(-n2nc(C(F)(F)F)cc2C(F)(F)F)cc1)c1ccc(F)cc1Cl	155 to 157
O=C(O[C@@H]1CC[C@@H](c2cccc(F)c2F)Cc2ccc(Cl)nc21)N1CCC(n2c(=O)[nH]c3ncccc32)CC1	248
COc1cc(Nc2c(C#N)cnc3c2sc2ccc([N+](=O)[O-])cc23)c(C)cc1Cl	> 305
CCc1c(F)c(=O)oc2cc(O)cc(O)c12	227 to 229
CSC(=NCCSCc1ccccn1)NC#N	85 to 88
CC(C)CC(NC(=O)C1CCCCC1NC(=O)OCc1ccccc1)C(N)=O (stereo not given)	188 to 190
CC(C)(C)OC(=O)NC(Cc1ccccc1)C(O)CNCC(O)C(Cc1cccc(OCc2ccccc2)c1)NC(=O)OC(C)(C)C (stereo not given)	125 to 145
CC(=O)OC(C)C1CCC2C3CC=C4C=CCCC4(C)C3CCC12C (stereo not given)	103 to 104
CC(C)(C)CC(=O)c1c(CC(C)(C)C(=O)O)n(Cc2ccc(Cl)cc2)c2ccc(OCc3ccc4ccccc4n3)cc12	183 to 184
COc1ccc(S(=O)(=O)Nc2cccnc2Nc2ccccc2C)cc1	80 to 81
COC(=O)c1ccc(C(=O)CCCOC(C)=O)cc1	61 to 62
CCOC(=O)c1cc2c(C(F)(F)F)cc(OCC(=O)OC(C)(C)C)cc2n1C	98 to 100
O=P(O)(O)CCCCCCC(F)(F)C(F)(F)C(F)(F)C(F)(F)F	107 to 108
N#Cc1ccc(N2CCN(Cc3cnc4c(c3)NC(=O)C3CCCCN43)CC2)cc1 (stereo not given)	212

Compound	melting point [°C]
O=C(O)CCc1oc(N2CCCC2)nc1-c1ccc(Cl)cc1	199 to 200
NC(=O)c1ccc(Cl)c(Br)c1	146 to 147
COc1cccc(C=O)c1	83 to 84
CCOC(=O)C1=C(C)Nc2nc(N3CCOCC3)nc(N3CCOCC3)c2C1c1ccccn1 (stereo not given)	226
CCn1c(=O)c2c(nc(/C=C/c3cc(OC)ccc3OC(=O)c3ccccc3)n2C)n(CC)c1=O	254 to 255
COc1cc(Nc2c(C#N)cnc3cc(-n4cccc4)c(OC)cc23)c(Cl)cc1Cl	229 to 230
CCNc1cc(Nc2ccc(OC)cc2)ncn1	190 to 193
ClC(=NNc1ccc(Cl)cc1)c1ccccc1	107 to 108
CNc1cccc(N)c1C(N)=O	130 to 132
CCCCOC(=O)NS(=O)(=O)CCc1cc(OCCCC)nn1Cc1ccc(Cl)cc1Cl	108 to 111
CC(=O)OCC1OC(n2c(Br)c(C#N)c3cc(Cl)c(Cl)cc32)C(O)C1O (stereo not given)	103 to 105
COc1cc(-c2cnc3ccccc3n2)cc([N+](=O)[O-])c1O	195 to 197
O=C(O)CCC1(CCC(=O)O)CCCCC(CCC(=O)O)(CCC(=O)O)C1=O	230 to 232
Cc1nccn1-c1nc(-c2ccc(Cl)cc2)c(CCC(=O)OCc2ccccc2)o1	71 to 72
COc1ccccc1CNc1ccc2cc(Nc3ncccc3C)ccc2n1	163
COc1ccc(-c2nc(N)sc2CCN2CC=C(c3ccccc3)CC2)cc1	163
O=C(O)C(ON=c1c2nccc3cccc(c32)n2cccc12)c1ccccc1 (stereo not given)	200
ClCCOc1cccc2c1OCCO2	73
CCSCC12CCC(=O)C=C1CCC1C3CC(CC)C(=O)C3(C)CCC12 (stereo not given)	73
O=C(O)Cc1noc(CC(=O)O)n1	109 to 111
O=c1n(-c2cc(O)c([N+](=O)[O-])cc2F)nc2ccc(Cl)cn12	207 to 209
CC1CCOP(C)(=O)C1 (stereo not given)	78 to 83
c1cc(-c2cnn3cc(-c4ccc(OCCN5CCOCC5)cc4)cnc23)cs1	149 to 151

Compound	melting point [°C]
CC(=O)OC1CC2=CCC3C4CCC(C(C)CCCC(C)C)C4(C)CCC3C2(C)C(O)C1O (stereo not given)	131 to 133
CC(C)(C(=O)COc1cccc2ccccc12)C1OCCO1	69
COc1ccc2c(-c3ccccc3)c(C(=O)c3ccccc3)sc2c1	94 to 95.5
CC1(C)CC(=O)c2c(O)cc(C=Cc3ccccc3)cc2O1	116
O=C(O)Cc1ccc2c(c1)C(=O)c1ccc(Cl)cc1CS2	245 to 247
CCSc1cc2c(cc1F)C(=O)C(=O)N2	215
N#Cc1ccc(-c2cc(=O)c3cccnc3o2)cc1	250 to 252
Cc1c(N[C@@H](c2nnc(-c3ccc(F)c(O)c3)o2)[C@H](C)O)ccc(C#N)c1Cl	103 to 108
COC1C(O)C(CO)OC1n1cnc2c(=S)n(C)cnc21 (stereo not given)	182 to 187
COc1cc(C=O)ccc1OCc1nc(-c2cccc(OS(C)(=O)=O)c2)oc1C	136 to 137
COc1cccc2cc(CNCCNC(=O)C34CCC(CC3=O)C4(C)C)oc12 (stereo not given)	177 to 178
BrCc1c(Br)csc1Br	89 to 90
Cc1ccc(-c2nc(C(F)(F)F)cn2-c2ccc(S(C)(=O)=O)cc2)nc1	196
COC(=O)CSC1c2ccccc2C=Cc2ccccc21	74 to 76
CS(=O)(=O)c1ccc(-c2nn(CC3CC3)c(=O)cc2-c2ccc(F)cc2)cc1	124
CCCOC(=O)C(C)Oc1ccc(Oc2cnc3cc(Cl)ccc3n2)cc1F (stereo not given)	70 to 72
CN(C)CCN(C(=O)OC(C)(C)C)C1=NCC(=O)N(C)c2ccccc21	< 35
CCOC(=O)COc1ccc(C(=O)c2ccc(O)cc2)c(Cl)c1Cl	127 to 129
O=S(c1ccccc1)C1COc2ccc(OCc3ccc4ccccc4n3)cc2C1O (stereo not given)	174 to 176
COCc1nc2cc3c(cc2c(=O)[nH]1)C(Nc1ccc(C(=O)OC(C)(C)C)cc1)CC3 (racemic)	> 122
CN(C)C(c1ccccc1)(c1cccc(Oc2ccccc2)c1)C1CCCCC1(O)Cc1ccccc1 (stereo not given)	189 to 190

The next lines start with the values.

melting point [°C]	Compound
94.5 to 95	COC(=O)NNC(=S)Cc1ccc(OC)cc1
195 to 196	O=c1ccn(CCO)c(C(O)c2ccc3c(c2)OCO3)c1OCc1ccccc1 (stereo not given)
> 300	CCc1[nH]n(C2CCCC2)c2nc(S(C)(=O)=O)nc(=O)c1-2
112 to 113	CC(C)NC(=C1Sc2ccccc2C1=O)c1ccccc1
101 to 102	N#CC(C#N)=C1N(CCCN2CCCCC2)CCN1CCN1CCc2ccccc2C1
148 to 153	COc1ccc(C=C2OC(=O)c3ccccc32)cc1N
188 to 192	CCOC(=O)c1cc(O)c(C(=O)c2ccc(Cl)cc2)c([N+](=O)[O-])c1
60 to 61.5	CSc1ccc(C2=C(c3ccc(C(F)(F)F)cc3)CCC2)cc1
99 to 100	COC(=O)c1ncccc1SCc1ccc(OC)cc1
199 to 200	Cc1oc(-c2ccc(-c3ccccc3)cc2)nc1CCOc1ccc(C[C@H](OCC(F)(F)F)C(=O)O)c2ccccc12
128	CC(C)Nc1ccc2c(c1)N1CCN=C1S2
50	CC(CC(=O)O)Nc1cccc(Cl)c1 (stereo not given)
190 to 192	CC(C)NC(=O)Nc1ccc(Cl)cc1C(=O)c1ccccc1
77 to 82	Fc1cncc(-n2ccc(Cl)n2)c1
168 to 169	CC(C)(C)[Si](C)(C)Oc1ccccc1-c1cc(-c2ccc([N+](=O)[O-])cc2)c(C#N)c(NC(=O)c2cccs2)n1
247 to 249	C[C@]1(COc2ccc(N3CCC(N4CCN(c5ccc(Cl)cc5)CC4)CC3)cc2)Cn2cc([N+](=O)[O-])nc2O1
143 to 144	COc1cc(CN2CCN(Cc3ccc(NC(=O)C4=Cc5cc(-c6ccc(C)cc6)ccc5CC4)cc3)CC2)cc(OC)c1OC

melting point [°C]	Compound
174 to 176	CCCCCCCCCCn1c(=O)n(C2OC(CO)C(O)C2O)c2nc(N)[nH]c(=O)c21 (stereo not given)
129 to 130	CCC(C)COC(=O)Oc1ccc(-c2ccc(O)cc2)cc1 (stereo not given)
96 to 97	COC(=O)CCC(=O)c1ccc2c(c1)CC(CCNC(C)=O)C2 (stereo not given)
215 to 216	NC(=O)Cc1ccc2c(c1)C(=O)Cc1cccnc1S2
162	Cc1c(NC(=O)c2ccc(OC[C@@H]3CCCO3)cc2)ccc2c1cc(CNCC(C)C)n2C
53 to 55	O=C(CCCC1CCN(Cc2ccccc2)CC1)c1ccc(F)cc1
244 to 245	O=C(Nc1cc(Cl)cc(Cl)c1)c1cc(I)ccc1O
111 to 113	NS(=O)(=O)c1ccc([C@H]2[C@H](C(=O)Nc3ccc(C(F)(F)F)cc3Cl)C23CCCC3)cc1 (relative stereo)
240 to 241	Cc1ccc(Cc2c[nH]c(=S)[nH]c2=O)cn1
235 to 237	COc1cc2ncc(C#N)c(Nc3ccc(SC)cc3)c2cc1OC
222 to 225	COc1cc2c(cc1F)C1(CO2)C(=O)Nc2ccccc21 (stereo not given)
202 to 205	Cc1ccc(-c2ccc3c(c2)C=C(C(=O)Nc2ccc(C(O)c4ccccn4)cc2)C(C)O3)cc1 (stereo not given)
> 300	O=c1ccn(-c2ccc3c(c2)Cc2cc(=O)[nH]nc2-3)cc1
118 to 120	CC(C)(C)OC(=O)NC(Cc1ccccc1)C(O)CNCC(O)C(Cc1ccc(OCC(=O)N2CCOCC2)cc1)NC(=O)OC(C)(C)C (stereo not given)
328 to 331	O=c1[nH]c2cc(Cl)ccc2c(=O)c2c(-c3ccccc3)n[nH]c12
87 to 89	CCOC(=O)C1CCC(=O)C(Sc2ccc(C)cc2)C1 (stereo not given)
